# Measurements: patent publication US20240009209A1, “PROTEIN-BOUND CANNABINOID FORMULATIONS AND USES THEREOF” (YISSUM RESEARCH DEVELOPMENT COMPANY OF THE HEBREW …, priority 2020, published 2024)
# Experiment: Plasma CBD after IV administration
# Assay type: in vivo, BALB/C mice
# Details: mice, IV 12 mg/kg
# Method: A total of 18 female BALB/C mice aged 12 weeks were injected IV with a single dose of 12 mg/kg CBD formulation in cremophor:ethanol.
# At the time-points detailed below, 3 mice were euthanized with CO2 and terminal blood was immediately collected from the retro-orbital sinus in labeled 0.5 ml K3 EDTA blood collection tubes (Mini Collect, Greiner-bio-one, Austria). The blood was centrifuged at 2000×g for 10 minutes before plasma was extracted, collected in labeled tubes and frozen at −20° C. immediately after collection. The samples were then stored at −80° C. pending analysis.
# Time-points for the blood collection: 2 min, 1, 4, 8, 24 and 48 h.
# CBD was extracted from plasma samples that were spiked with cannabigerol (CBG, 1 mg/ml in methanol, Sigma, Cat. C-141-1 Add lot) used as internal standard (IS) followed by dilution of the plasma five-fold in acetonitrile. After vigorous vortex it was centrifuged, and the upper phase was analyzed. Final IS concentration in the samples was 100 ng/ml.
# Plasma extracts were analyzed by LC/MS method (Sciex (Framingham, MA, USA) Triple Quad™ 5500 mass spectrometer coupled with a Shimadzu (Kyoto, Japan) UHPLC System). The concentrations were calculated based on a calibration curve of CBD in plasma at a range of 1-1,000 ng/ml having 100 ng/ml of Internal Standard (IS).
smiles,measurement,setting,value
"C=C(C)[C@@H]1CCC(C)=C[C@H]1c1c(O)cc(CCCCC)cc1O [free CBD, 2-[(1R,6R)-6-Isopropenyl-3-methylcyclohex-2-en1-yl]-5-pentylbenzene-1,3-diol]",Plasma CBD Mean ± SD,24 h,BLOD
same,Plasma CBD Mean ± SD,"24 h, listed as CBD",below the limit of detection
same,Plasma CBD Mean ± SD,48 h,BLOD
same,Plasma CBD Mean ± SD,"48 h, listed as CBD",below the limit of detection
